Earlier results as cited in patent US5925665A, “Imidazoline compounds” (Adir Et Compagnie, priority 1996, dated 1999).

Test system: mice
Conditions: general statement on reference products

SMILES	duration of immobility, known antidepressants
CN(C)CCCN1c2ccccc2CCc2ccccc21 [imipramine]	decrease this duration of immobility
CNCCCN1c2ccccc2CCc2ccccc21 [desipramine]	decrease this duration of immobility
